Active and inactive are the calls of the source. The rule behind the calls is not given here. Residues, ends and D or L forms follow the SMILES beside them. *: point of attachment. X1 = CCCCCCCCCCCCCCCC(=O)OCC(C*)OC(=O)CCCCCCCCCCCCCCC; Palmitoyl = CCCCCCCCCCCCCCCC(=O)*

In series [1] the test system is PBMC. The series can be described thus: Toxic induction of IL1-beta level in human PBMC assessed as drug level causing maximal cytokine induction after 24 hrs relative to control. Type of series: toxicity, cell-based.
In series [2] the test system is Hepatitis C virus. The series can be described thus: Antiviral activity against HCV infected human Huh7 replicon cells treated with drug-induced human PBMC supernatants assessed as viral levels by luciferase assay. Type of series: functional, organism-based. To be noted: Hepacivirus hominis.
Series [3] deals with PBMC. The series can be described thus: Toxic induction of TNFalpha level in human PBMC assessed as drug level causing maximal cytokine induction after 24 hrs relative to control. In kind it is toxicity, cell-based.
In series [4] the test system is Hepatitis C virus. Nature of the series: Antiviral activity against HCV infected human Huh7 replicon cells assessed as viral levels by luciferase assay. Type of series: functional, organism-based. To be noted: Hepacivirus hominis; Huh-7.
Series [5] concerns PBMC. Nature of the series: Toxic induction of IL6 level in human PBMC assessed as drug level causing maximal cytokine induction after 24 hrs relative to control. Type of series: toxicity, cell-based.
Series [6] concerns PBMC. The series can be described thus: Induction of IFNalpha2a level in human PBMC assessed as drug level causing maximal cytokine induction after 24 hrs relative to control. Type of series: functional.
The test system of series [7] is PBMC. The series can be described thus: (§1) Increase in IFNalpha level in human PBMC after 24 hrs relative to control. In kind it is functional, cell-based.
The test system of series [8] is PBMC. Nature of the series: Increase in 2',5'-oligoadenylate synthase level in human PBMC after 24 hrs by PCR method relative to control. Type of series: functional, cell-based.
Series [9] deals with PBMC. Described as §1. In kind it is functional, cell-based. This is another data set of the same source.
Series [10] has as its system Hepatitis C virus. The series can be described thus: Antiviral activity against HCV infected human Huh7 replicon cells treated for 24 hrs with drug-induced human PBMC supernatants assessed as viral levels by luciferase assay. In kind it is functional, organism-based. To be noted: Hepacivirus hominis.
For series [11], the system named is PBMC. Nature of the series: Toxicity assessed as increase in IL6 level in human PBMC after 24 hrs relative to control. In kind it is functional, cell-based.
The subject of series [12] is PBMC. The series can be described thus: Toxicity assessed as increase in TNFalpha level in human PBMC after 6 hrs relative to control. Type of series: cell-based.
Series [13] relates to Hepatitis C virus. The series can be described thus: Antiviral activity against HCV infected human Huh7 replicon cells treated for 48 hrs with drug-induced mixed donor human PBMC supernatants assessed as viral levels by luciferase assay. Type of series: functional, organism-based, Hepacivirus hominis.
Series [14] relates to Hepatitis C virus. The series can be described thus: Antiviral activity against HCV infected human Huh7 replicon cells treated for 48 hrs with drug-induced single donor human PBMC supernatants assessed as viral levels by luciferase assay. In kind it is functional, organism-based, Hepacivirus hominis.
Series [15] deals with PBMC. Nature of the series: Increase in 2',5'-oligoadenylate synthase level in human PBMC after 24 hrs relative to control. In kind it is functional, cell-based.
The subject of series [16] is Hepatitis C virus. The series can be described thus: Antiviral activity against HCV infected human Huh7 replicon cells treated with 100 nM drug-induced human PBMC supernatants assessed as viral levels in presence of type I IFN receptor antibody by luciferase assay. In kind it is functional, organism-based. The following applies: Hepacivirus hominis.
Series [17] relates to Hepatitis C virus. Nature of the series: Antiviral activity against HCV infected human Huh7 replicon cells treated with 200 nM drug-induced human PBMC supernatants assessed as viral levels in presence of type I IFN receptor antibody by luciferase assay. Type of series: functional, organism-based. To be noted: Hepacivirus hominis.
Series [18] deals with Hepatitis C virus. The series can be described thus: Antiviral activity against HCV infected human Huh7 replicon cells treated with 20 uM drug-induced human PBMC supernatants assessed as viral levels in presence of type I IFN receptor antibody by luciferase assay. The following applies: Hepacivirus hominis. Type of series: functional, organism-based.
Series [19] deals with Hepatitis C virus. The series can be described thus: Antiviral activity against HCV infected human Huh7 replicon cells treated with 3 uM drug-induced human PBMC supernatants assessed as viral levels in presence of type I IFN receptor antibody by luciferase assay. Type of series: functional, organism-based. To be noted: Hepacivirus hominis.

With `CCCCCCCCCCCCCCCC(=O)N[C@@H](CSCC(COC(=O)CCCCCCCCCCCCCCC)OC(=O)CCCCCCCCCCCCCCC)C(=O)N[C@@H](CO)C(=O)N[C@@H](CCCCN)C(=O)N[C@@H](CCCCN)C(=O)N[C@@H](CCCCN)C(=O)N[C@@H](CCCCN)C(=O)O` (some centres not stated) (Palmitoyl-C(X1)SKKKK-OH), the Activity in the series on PBMC [1] turned out to be 1 µM; in the series with PBMC [3], 0.1 µM; with PBMC [5] it was 1 µM; in the series with PBMC [6], 0.3 µM. In addition, the outcome in the series with Hepatitis C virus [2] was Active. Moreover, in the series on Hepatitis C virus [4], the result was inactive.

As for `Cc1cn([C@H]2C[C@H](OP(=O)(O)OC[C@H]3O[C@@H](n4cnc5c(=O)[nH]c(N)nc54)[C@H](O)[C@@H]3OP(=O)(O)OC[C@H]3O[C@@H](n4cc(C)c(=O)[nH]c4=O)C[C@@H]3OP(=O)(O)OC[C@H]3O[C@@H](n4cc(C)c(=O)[nH]c4=O)C[C@@H]3OP(=O)(O)OC[C@H]3O[C@@H](n4cc(C)c(=O)[nH]c4=O)C[C@@H]3OP(=O)(O)OC[C@H]3O[C@@H](n4cc(C)c(=O)[nH]c4=O)C[C@@H]3OP(=O)(O)OC[C@H]3O[C@@H](n4cnc5c(=O)[nH]c(N)nc54)[C@H](O)[C@@H]3OP(=O)(S)OC[C@H]3O[C@@H](n4ccc(N)nc4=O)[C@H](O)[C@@H]3OP(=O)(O)OC[C@H]3O[C@@H](n4cc(C)c(=O)[nH]c4=O)C[C@@H]3OP(=O)(O)OC[C@H]3O[C@@H](n4cc(C)c(=O)[nH]c4=O)C[C@@H]3O)[C@@H](COP(=O)(O)OC[C@H]3O[C@@H](n4cnc5c(=O)[nH]c(N)nc54)[C@H](O)[C@@H]3OP(O)(=S)OC[C@H]3O[C@@H](n4ccc(N)nc4=O)[C@H](O)[C@@H]3OP(=O)(O)OC[C@H]3O[C@@H](n4cc(C)c(=O)[nH]c4=O)C[C@@H]3OP(=O)(O)OC[C@H]3O[C@@H](n4cnc5c(=O)[nH]c(N)nc54)[C@H](O)[C@@H]3OP(=O)(O)OC[C@H]3O[C@@H](n4cc(C)c(=O)[nH]c4=O)C[C@@H]3OP(=O)(O)OC[C@H]3O[C@@H](n4cc(C)c(=O)[nH]c4=O)C[C@@H]3OP(=O)(O)OC[C@H]3O[C@@H](n4cc(C)c(=O)[nH]c4=O)C[C@@H]3OP(=O)(O)OC[C@H]3O[C@@H](n4cc(C)c(=O)[nH]c4=O)C[C@@H]3OP(=O)(O)OC[C@H]3O[C@@H](n4cnc5c(=O)[nH]c(N)nc54)[C@H](O)[C@@H]3OP(O)(=S)OC[C@H]3O[C@@H](n4ccc(N)nc4=O)[C@H](O)[C@@H]3OP(=O)(O)OC[C@H]3O[C@@H](n4cc(C)c(=O)[nH]c4=O)C[C@@H]3OP(=O)(O)OC[C@H]3O[C@@H](n4cc(C)c(=O)[nH]c4=O)C[C@@H]3O)O2)c(=O)[nH]c1=O` (some centres not stated), the Activity is 5 µM in the series on PBMC [1]; 5 µM in the series with PBMC [3]; 0.2 µM with PBMC [5]; “Dose-dependent effect” in the series on PBMC [7]; 0.2 µM in the series with PBMC [6]; “Dose-dependent effect” in the series with PBMC [8]. The result in the series with Hepatitis C virus [2] was Active. In addition, the outcome in the series with Hepatitis C virus [4] was inactive.

Take `CCOCc1nc2c(N)nc3ccccc3c2n1CC(C)(C)O` [RESIQUIMOD]: the result in the series on PBMC [9], in the series with Hepatitis C virus [2], in the series on Hepatitis C virus [10], in the series with PBMC [11] and with PBMC [15] was Active. In addition, the Activity in the series on PBMC [1] is 1 µM; in the series on PBMC [3] it was 1 µM; with PBMC [5], 1 µM; in the series on PBMC [7], “Dose-dependent effect”; with PBMC [6] it was 0.1 µM; with PBMC [8] it was “Dose-dependent effect”. In addition, in the series on PBMC [12], the “fold change (FC)” value came to 2.5. Moreover, the values for the concentration for a half-maximal effect (EC50) in the series on Hepatitis C virus [13] and in the series on Hepatitis C virus [14] were 24 nM and 26.5 nM, respectively. Moreover, the outcome with Hepatitis C virus [4] and in the series on Hepatitis C virus [16] was inactive.

On to `COCCOc1nc(N)c2[nH]c(=O)n(Cc3ccccc3)c2n1`, for which the Activity in the series on PBMC [1] was 1 µM; with PBMC [3], 1 µM; in the series on PBMC [5] it was 1 µM; in the series on PBMC [7] it was “Dose-dependent effect”; in the series with PBMC [6] it was 0.1 µM; with PBMC [8] it was “Dose-dependent effect”. The outcome with Hepatitis C virus [2] was Active. In addition, the result with Hepatitis C virus [4] and in the series on Hepatitis C virus [17] was inactive.

As to `CC(C)Cn1cnc2c(N)nc3ccccc3c21` [IMIQUIMOD], the Activity in the series with PBMC [1] is 0.1 µg/mL; in the series with PBMC [3] it was 1 µg/mL; in the series on PBMC [5] it was 1 µg/mL; in the series on PBMC [7], “Dose-dependent effect”; in the series with PBMC [6] it was 1 µg/mL; in the series with PBMC [8], “Dose-dependent effect”. In addition, the outcome in the series with Hepatitis C virus [2] was Active. The outcome with Hepatitis C virus [4] and in the series with Hepatitis C virus [18] was inactive.

Turning to `CCCc1nc2c(N)nc3ccccc3c2s1`, the Activity in the series with PBMC [1] was 3.3 µM; in the series on PBMC [3], 10 µM; in the series on PBMC [5] it was 3.3 µM; in the series on PBMC [7], “Dose-dependent effect”; with PBMC [6] it was 10 µM; with PBMC [8], “Dose-dependent effect”. Also, the outcome in the series on Hepatitis C virus [2] was Active. Besides, the result with Hepatitis C virus [19] and with Hepatitis C virus [4] was inactive.

For the origin of these results see ChEMBL document CHEMBL1155176, “Investigating Toll-like receptor agonists for potential to treat hepatitis C virus infection” (Antimicrob Agents Chemother, 2007).
